{"source": "patent US8664220B2", "about": "“Polycyclic compounds as lysophosphatidic acid receptor antagonists” (Amira Pharmaceuticals, Inc., priority 2009, dated 2014)", "key": {"[1]": {"test_system": "human foetal lung fibroblasts", "settings": "cited from earlier work"}, "[2]": {"test_system": "renal fibrosis, unilateral ureteral obstruction (UUO)", "settings": "UUO mice; cited from earlier work"}, "[3]": {"test_system": "mouse epithelial renal cell line, MCT", "settings": "co-treatment with LPA, MCT cells; cited from earlier work"}, "[4]": {"test_system": "pancreatic cancer cell lines", "settings": "cited from earlier work"}, "human LPA1": {"biological_target": "T1, human LPA1 (Homo sapiens, UniProt Q92633)", "T1 construct": "the full-length cDNA for human LPA1 was obtained by PCR of the reverse transcription reaction; expressed in transfected cells", "T1 sequence (Q92633 whole entry)": "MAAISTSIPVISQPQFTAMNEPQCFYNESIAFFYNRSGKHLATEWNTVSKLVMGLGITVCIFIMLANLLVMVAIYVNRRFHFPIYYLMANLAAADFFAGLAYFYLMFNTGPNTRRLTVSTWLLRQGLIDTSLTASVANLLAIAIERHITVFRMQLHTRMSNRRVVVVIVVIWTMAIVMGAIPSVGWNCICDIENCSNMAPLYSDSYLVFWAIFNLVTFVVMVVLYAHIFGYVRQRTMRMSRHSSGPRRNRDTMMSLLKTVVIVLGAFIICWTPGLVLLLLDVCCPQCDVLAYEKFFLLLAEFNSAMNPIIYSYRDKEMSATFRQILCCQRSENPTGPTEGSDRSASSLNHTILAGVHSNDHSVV", "test": "LPA1 calcium flux assay", "assay_type": "cell-based", "settings": "human LPA1 expressing CHO cells, stimulated with 10 nM LPA; read-out: HLPA1 Ca Flux IC50", "summary_of_the_method": "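CHO cells stably expressing human LPA1, serum-starved overnight and loaded with Calcium 4 dye in HBSS/20 mM Hepes/0.3% fatty-acid-free HSA, 1 h at 37 °C. Compounds pre-incubated 30 min at room temperature, then 10 nM LPA added; intracellular Ca2+ flux measured and IC50 from titration curves.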"}, "[5]": {"test_system": "A2058 human melanoma cells", "test": "LPA1 chemotaxis assay", "assay_type": "cell-based", "settings": "LPA 100 nM, read-out: IC50, inhibition of LPA-driven chemotaxis", "description": "Chemotaxis of the A2058 human melanoma cells was measured using the Neuroprobe ChemoTx® System plates (8 μm pore size, 5.7 mm diameter sites). The filter sites were coated with 0.001% fibronectin (Sigma) in 20 mM Hepes, pH 7.4 and allowed to dry. A2058 cells were serum-starved for 24 hours, then harvested with Cell Stripper and resuspended in DMEM containing 0.1% fatty-acid-free bovine serum albumin (BSA) to a concentration of 1×10^6/ml. Cells were mixed with an equal volume of test compound (2×) in DMEM containing 0.1% fatty-acid-free BSA and incubated at 37° C. for 15 minutes. LPA (100 nM in DMEM containing 0.1% fatty-acid-free BSA) or vehicle was added to each well of the lower chamber and 50 μl of the cell suspension/test compound mix was applied to the upper portion of the ChemoTx plate. Plates were incubated at 37° C. for three hours and then the cells removed from the upper portion by rinsing with PBS and scraping. The filter was dried then stained with HEMA 3 Staining System (Fisher Scientific). The absorbance of the filter was read at 590 nm and IC50s were determined using Symyx Assay Explorer."}, "[6]": {"test_system": "bleomycin-induced lung fibrosis", "test": "Bleomycin-induced lung fibrosis model in mice", "assay_type": "in vivo, mouse", "settings": "acute setting (3 day)", "text": "Bleomycin-induced Lung Fibrosis Model in Mice Female CD-1 mice (Harlan, 25-30 g) are housed 4 per cage, given free access to food and water and allowed to acclimate for at least 7 days prior to test initiation. After the habituation phase, mice are lightly anesthetized with isoflurane (5% in 100% O2) and administered with bleomycin sulfate (0.01-5 U/kg, Henry Schein) via intratracheal instillation (Cuzzocrea S et al. Am J Physiol Lung Cell Mol Physiol. 2007 May; 292(5):[…]-104. Epub 2007 Jan. 12.). Mice are returned to their cages and monitored daily for the duration of the experiment. Test compound or vehicle is delivered po, ip or sc daily. The route and frequency of dosing is based on previously determined pharmacokinetic properties. […] BALF is analyzed for concentrations of inflammatory, pro-fibrotic and tissue injury biomarkers including transforming growth factor β1, hyaluronic acid, tissue inhibitor of metalloproteinase-1, matrix matelloproteinase-7, connective tissue growth factor and lactate dehydrogenase activity, using commercially available ELISA. […] Total cell counts are then obtained using a Hemavet hematology system (Drew Scientific, Wayne, Pa.) and differential cells counts are determined using Shandon cytospin (Thermo Scientific, Waltham, Mass.). […] The data are plotted using Graphpad prism and statistical differences between groups determined."}, "nerve-injured mice": {"test_system": "nerve-injured mice", "settings": "pretreatment; cited from earlier work"}}}
{"smiles": "Cc1noc(-c2ccc(CSCCC(=O)O)cc2)c1NC(=O)OC(C)c1ccccc1Cl", "note": "(stereo not shown) [Ki16425]", "values": [{"measurement": "chemotaxis of human foetal lung fibroblasts induced by BAL from IPF patients", "setting": "[1]", "value": "blocked"}, {"measurement": "development of renal fibrosis", "setting": "[2]", "value": "closely resembled the LPA1 (−/−) mice"}, {"measurement": "LPA-induced increase in expression of the profibrotic cytokine CTGF", "setting": "[3]", "value": "almost completely suppressed"}, {"measurement": "LPA-induced and ascites-induced invasion activity", "setting": "[4]; highly peritoneal metastatic pancreatic cancer cell line", "value": "blocked"}, {"measurement": "in vitro migration in response to LPA and peritoneal fluid (ascites) from pancreatic cancer patients", "setting": "[4]; pancreatic cancer cell lines", "value": "effectively blocked"}]}
{"smiles": "Cc1noc(-c2ccc(-c3ccc(C4(C(=O)O)CC4)cc3)cc2)c1C(O)c1cn(Cc2ccccc2)nn1", "note": "(single isomer, unassigned) [Compound 1-41, 1-(4′-{4-[(1-Benzyl-1H-[1,2,3]triazol-4-yl)-hydroxy-methyl]-3-methyl-isoxazol-5-yl}-biphenyl-4-yl)-cyclopropanecarboxylic acid]", "values": [{"measurement": "IC50", "setting": "human LPA1", "value": "< 300", "unit": "nM"}, {"measurement": "IC50", "setting": "[5]", "value": "< 100", "unit": "nM"}, {"measurement": "collagen concentration in broncheoalveolar lavage fluid (BALF)", "setting": "[6]", "value": "significantly reduced"}, {"measurement": "total protein concentration in broncheoalveolar lavage fluid (BALF)", "setting": "[6]", "value": "significantly reduced"}]}
{"smiles": "C[C@@H](N)[C@H]1CC[C@H](C(=O)Nc2ccncc2)CC1", "note": "[Compound Y-27632]", "values": [{"measurement": "allodynia and hyperalgesia", "setting": "nerve-injured mice", "value": "completely abolished"}]}
